Source: PMC12388496, “Discovery of (E)-1,3-Diphenyl-2-Propen-1-One Derivatives as Potent and Orally Active NLRP3 Inflammasome Inhibitors for Colitis” (Molecules, 2025)

Key:
BMDM cells = assay: Flow cytometry apoptosis assay kit (pyroptosis) in BMDM cells under LPS/Nigericin; type: cell-based, mouse; conditions: vs LPS/Nigericin group, more pronounced at higher concentrations
Description: Pyroptosis is a form of programmed cell death, typically triggered by the activation of inflammasomes within the cell. It is characterized by the rupture of the cell membrane, releasing cellular contents (such as Lactate Dehydrogenase, LDH), which enhances the inflammatory response. Unlike apoptosis, pyroptosis is initiated through the activation of inflammasomes, involving distinct molecular mechanisms, and is often accompanied by cell swelling and rupture. In contrast, apoptosis is triggered by the activation of Caspase-3, leading to systemic degradation within the cell while maintaining the integrity of the cell membrane. The cell undergoes controlled self-degradation without provoking an immune response. […]
Figure 4 F14 inhibits NLRP3 inflammasome activation, leading to cell pyroptosis. […] All values given are best readings. / LPS/Nigericin: Q1-UL 0.83%, Q1-UR 79.53%, Q1-LL 14.81%, Q1-LR 4.83% uncertain / F14 10 μM: Q1-UL 0.52%, Q1-UR 48.44%, Q1-LL 45.87%, Q1-LR 5.17% uncertain / F14 5 μM: Q1-UL 1.05%, Q1-UR 58.47%, Q1-LL 36.16%, Q1-LR 4.32% uncertain / F14 2.5 μM: Q1-UL 0.97%, Q1-UR 69.26%, Q1-LL 24.69%, Q1-LR 5.08% uncertain / The Control plot in panel A (Q1-UL 0.83%, Q1-UR 24.77%, Q1-LL 69.90%, Q1-LR 4.49%) is left out because it is not a substance. / LPS/Nigericin is the stimulus rather than a test compound. […]

NLRP3 inflammasome = assay: Western blot of NLRP3 inflammasome proteins in BMDMs; type: cell-based, mouse; conditions: BMDM, LPS and Nigericin
Procedure: To further investigate the potential molecular mechanisms of compound F14, an in vitro inflammation model was constructed using BMDM cells.
Inoculate BMDMs cells into a 6-well plate with 4-6 × 10^6 cells per well and culture overnight. Pre-treat with LPS (200 ng/mL) for 3 h, then treat with different concentrations of compound F14 for 30 min, and add Nigericin (10 µM) to activate BMDMs for 30 min. Add RIPA (Beyotime Biotechnology, Shanghai, China) for lysis. Select SDS-PAGE with different concentrations for electrophoresis, and then transfer to PVDF membrane (Millipore Immobilon-P, Burlington, MA, USA). Incubate the antibody imprint overnight at 4°C, and then incubate with HRP conjugated secondary antibody for 1 h.

[1] = test system: IL-1β secretion in BMDM cells (NLRP3 inflammasome); assay: ELISA of IL-1β secretion in LPS/nigericin-treated BMDM cells; type: cell-based; conditions: Mus musculus
Procedure: When L929 cells reach the logarithmic phase, collect the cell supernatant. Filter the supernatant using a 0.22 μm filter and store it at −20 °C for future use. The 7-week-old C57BL/6 mice were selected as the source of primary bone marrow macrophages. The mice were euthanized using the cervical dislocation method. The ends of the femurs were cut, and the bone marrow was flushed into a 15 mL centrifuge tube using a 5 mL syringe. Once all the bone marrow was collected, an appropriate amount of red blood cell lysis buffer was added to the centrifuge tube. The mixture was incubated for 3–5 min, with repeated pipetting to thoroughly lyse the red blood cells. The cells were then centrifuged and collected. Add 30–40% L929 cell supernatant or M-CSF stimulatory factor to the culture dish. Culture the cells in a cell incubator at 37 °C with 5% CO2. Observe the cell condition daily, and once most cells have adhered to the surface, proceed with subsequent experiments.
Inoculate 1.0 × 10^5 BMDMs cells per well into a 96 well plate and culture overnight. Stimulate the cells with lipopolysaccharide (LPS) at a concentration of 0.2 μg/mL for 3 h, then add different concentrations of the test compounds and incubate for 30 min. Finally, add Nigericin at a concentration of 10 μM to continue the induction for 30 min. Collect the cell supernatant and measure the IL-1β secretion level in the supernatant using an ELISA kit, following the instructions provided, and calculate the IC50 value based on the relevant calculations. To ensure the accuracy and reliability of the experimental results, all experiments were repeated three times, with each experiment performed independently.

Cc1ccc(C(=O)/C=C/c2cccc(O)c2)c(C)c1 [Compound F14, (E)-1-(2,4-dimethylphenyl)-3-(3-hydroxyphenyl)propyl-2-en-1-one]
viable cell percentage and late apoptotic cell percentage (BMDM cells): significantly improved | protein expression levels of pro-IL-1β, pro-caspase-1, ASC, NEK7 and NLRP3 (NLRP3 inflammasome): no significant effect | protein levels of IL-1β and caspase-1 in the cell supernatant (NLRP3 inflammasome): concentration-dependent inhibitory effect | inhibition at 20 µM ([1]; 20 µM, LPS/nigericin-treated BMDM cells, mean ± S.E.M. (n = 3), read-out: IL-1β Inhibition Rate (%)): 95.4 ± 2.56% | IC50 ([1]; BMDM, LPS/nigericin, three independent experiments, read-out: IL-1β release IC50 in BMDMs): 0.74 µM
